{"source": "ChEMBL document CHEMBL2073797", "about": "“Characterization of an organic anion-transporting polypeptide (OATP-B) in human placenta” (J Clin Endocrinol Metab, 2002)", "biological_target": "T1, Solute carrier organic anion transporter family member 2B1 (OATP2B1) (Homo sapiens, UniProt O94956)", "T1 sequence (O94956 whole entry)": "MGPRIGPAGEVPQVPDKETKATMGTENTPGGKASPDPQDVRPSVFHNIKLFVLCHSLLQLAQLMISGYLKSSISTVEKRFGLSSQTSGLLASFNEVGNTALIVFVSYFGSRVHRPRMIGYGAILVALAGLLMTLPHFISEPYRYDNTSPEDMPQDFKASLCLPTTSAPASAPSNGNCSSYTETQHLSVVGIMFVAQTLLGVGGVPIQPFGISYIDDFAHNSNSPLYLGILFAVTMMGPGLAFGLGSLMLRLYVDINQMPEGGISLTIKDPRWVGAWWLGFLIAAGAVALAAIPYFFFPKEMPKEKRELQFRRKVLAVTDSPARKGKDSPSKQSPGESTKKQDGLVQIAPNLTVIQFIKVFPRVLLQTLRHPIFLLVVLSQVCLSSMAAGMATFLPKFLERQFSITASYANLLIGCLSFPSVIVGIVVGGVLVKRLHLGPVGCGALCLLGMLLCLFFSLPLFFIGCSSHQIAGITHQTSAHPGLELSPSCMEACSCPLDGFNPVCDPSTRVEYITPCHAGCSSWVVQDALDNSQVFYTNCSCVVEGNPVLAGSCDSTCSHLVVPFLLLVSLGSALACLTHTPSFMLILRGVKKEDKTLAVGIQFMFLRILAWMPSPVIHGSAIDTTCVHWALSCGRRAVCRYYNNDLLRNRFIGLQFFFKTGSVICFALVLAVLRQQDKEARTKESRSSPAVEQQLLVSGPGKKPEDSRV", "test": "TP_TRANSPORTER: inhibition of Estrone-3-sulfate uptake (Estrone-3-sulfate: 1 uM, Pregnenolone sulfate: 100 uM) in Xenopus laevis oocytes", "assay_type": "functional, cell-based, Oocyte", "conditions": "Xenopus laevis oocytes expressing OATP2B1 (SLCO2B1), probe Estrone-3-sulfate (1 uM)", "note": "Where a name gives a salt, the structure may show the parent alone."}
{"compound": "CC(=O)[C@H]1CC[C@H]2[C@@H]3CC=C4C[C@@H](OS(=O)(=O)O)CC[C@]4(C)[C@H]3CC[C@]12C", "note": "[PREGNENOLONE SULFATE]", "values": [{"measurement": "inhibition at 100 µM", "result": 83, "unit": "%"}]}
